Laboratory results: patent publication US5026715A, “2-guanidino-4-arylthiazoles for treatment of peptic ulcers” (Pfizer Inc., priority 1989, dated 1991)
Counter-ions that a name gives are not always drawn.

target: T1, H^+ / K^+ ATPase isolated from canine gastric mucosa (Canis lupus familiaris, UniProt P50996); assay: Inhibition of H+/K+ ATPase isolated from canine gastric mucosa; format: biochemical; conditions: preincubated 45 minutes at 37° C., pH 7.5, drugs preferably acid activated in 1:1 dimethylsulfoxide:0.02N HCl, 30 minutes, read-out: IC50 (the concentration which inhibits the enzyme to the extent of 50%)
T1 construct: ATPase isolated from canine gastric mucosa; from tissue; host or cells: canine gastric mucosa
T1 sequence (P50996 2-1034 limits assumed): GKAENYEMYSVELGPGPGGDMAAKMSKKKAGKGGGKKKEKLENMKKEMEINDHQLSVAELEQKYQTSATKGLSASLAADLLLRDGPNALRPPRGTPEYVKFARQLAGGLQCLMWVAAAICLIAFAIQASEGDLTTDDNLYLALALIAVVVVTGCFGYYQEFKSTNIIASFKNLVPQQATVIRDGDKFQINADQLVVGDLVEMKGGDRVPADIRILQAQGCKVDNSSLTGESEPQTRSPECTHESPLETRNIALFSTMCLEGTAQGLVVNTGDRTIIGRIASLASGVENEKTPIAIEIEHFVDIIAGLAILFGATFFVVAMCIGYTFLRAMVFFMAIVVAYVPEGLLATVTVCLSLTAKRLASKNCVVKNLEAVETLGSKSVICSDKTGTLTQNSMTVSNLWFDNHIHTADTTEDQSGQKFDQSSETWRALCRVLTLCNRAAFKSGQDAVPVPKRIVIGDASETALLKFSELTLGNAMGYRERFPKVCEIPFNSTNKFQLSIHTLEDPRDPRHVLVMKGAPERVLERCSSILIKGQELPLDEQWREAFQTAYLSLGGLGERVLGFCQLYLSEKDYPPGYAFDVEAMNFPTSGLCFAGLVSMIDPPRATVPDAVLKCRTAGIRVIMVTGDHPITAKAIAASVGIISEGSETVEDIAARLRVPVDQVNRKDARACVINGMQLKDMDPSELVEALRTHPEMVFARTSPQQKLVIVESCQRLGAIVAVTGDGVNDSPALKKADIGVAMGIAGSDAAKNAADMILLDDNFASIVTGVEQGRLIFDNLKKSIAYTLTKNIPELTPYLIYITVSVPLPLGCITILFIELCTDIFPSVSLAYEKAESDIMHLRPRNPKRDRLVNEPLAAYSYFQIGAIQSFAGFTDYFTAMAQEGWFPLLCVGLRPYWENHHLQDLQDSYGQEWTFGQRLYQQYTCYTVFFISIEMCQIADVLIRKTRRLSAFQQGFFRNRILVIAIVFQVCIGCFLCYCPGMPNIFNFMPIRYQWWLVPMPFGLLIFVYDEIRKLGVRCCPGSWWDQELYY
T1 sequence (P33704 whole entry partner): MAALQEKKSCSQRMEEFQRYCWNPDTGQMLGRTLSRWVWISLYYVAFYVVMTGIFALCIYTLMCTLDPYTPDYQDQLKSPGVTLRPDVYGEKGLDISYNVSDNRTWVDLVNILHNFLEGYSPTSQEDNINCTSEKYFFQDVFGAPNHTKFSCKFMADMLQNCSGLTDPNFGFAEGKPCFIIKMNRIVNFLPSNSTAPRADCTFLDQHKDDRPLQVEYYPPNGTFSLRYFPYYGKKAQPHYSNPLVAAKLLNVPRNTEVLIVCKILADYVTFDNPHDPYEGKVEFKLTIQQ
Description: The utility of the present compounds as antiulcer agents is reflected in vitro by their inhibition of H^+ / K^+ ATPase isolated from canine gastric mucosa. The enzyme activity was assayed according to Beil et al., Brit. J. Pharmacol. 82, 651-657 (1984) with slight modifications. The enzyme (1-2 micrograms) was preincubated at 37° C. for 45 minutes with a medium containing 2×10^-3 M MgCl2, 0.05M Tris-Cl buffer (pH 7.5) with or without 0.01M KCl, and the acid activated test drug in a final volume of 0.590 ml. The reaction was started by the addition of […] of ATP (final concentration 3×10^-3 M). The reaction was terminated by adding trichloroacetic acid to a concentration of 4.2%. Liberated inorganic phosphate was determined using Fiske and Subbarow Reducer available commercially (e.g., from Sigma Chemical Co., P.O. Box 14508, St. Louis, Mo. 63178, U.S.A.). In this test the drugs are preferably first acid activated by incubating in 1:1 dimethylsulfoxide:0.02N HCl at 37° C. for 30 minutes.

Going from Cc1cc(-c2csc(NC(=N)N)n2)c[nH]1 [2-guanidino-4-(2-methylpyrrol-4-yl)thiazole] to COc1cccc(-c2csc(NC(=N)NCc3ccccc3)n2)c1 [4-(3-methoxyphenyl)-2-(N-benzylguanidino)thiazole], the IC50 falls from 15 µM to 10 µM (1.5-fold). The second is the more potent here.

Compared with N=C(NCc1ccccc1)Nc1nc(-c2c[nH]c3ccc(Cl)cc23)cs1 [4-(5-chloro-1H-indol-3-yl)-2-(N-benzylguanidino)thiazole], N=C(NCc1ccccc1)Nc1nc(-c2c[nH]c3ccccc23)cs1 [4-(1H-Indol-3-yl)-2-(N-benzyl-N"-guanidino)thiazole Hydrochloride] is 3.3-fold higher in IC50: 0.6 µM for the first, 2 µM for the second.

system: ethanol-induced gastric ulceration in rats; assay: Inhibition of ethanol-induced gastric ulceration in rats (cytoprotective activity); format: in vivo, rat; conditions: dose of 30 mg/kg
Description: The in vivo utility of the present compounds as antiulcer agents is also particularly shown by their cytoprotective activity.

Going from Cc1cc(-c2csc(NC(=N)N)n2)c[nH]1 [2-guanidino-4-(2-methylpyrrol-4-yl)thiazole] to NC(=Nc1nc(-c2ccc[nH]2)cs1)NCc1ccccc1 [2-(N-benzylguanidino)-4-(pyrrol-2-yl)thiazole], the “inhibition of ethanol-induced gastric ulceration” value falls from 100% to 99%.
